Source: publication PMC7461584, “N-(2′-Hydroxyphenyl)-2-Propylpentanamide (HO-AAVPA) Inhibits HDAC1 and Increases the Translocation of HMGB1 Levels in Human Cervical Cancer Cells” (International Journal of Molecular Sciences, 2020)
Where “and” joins values, the source holds several entries; their conditions need not be identical. Equal values may be shown once. Entries after “also recorded” stand apart in the source; their conditions may differ.

Legend:
[1] = parameters: method as in PMID 32387339, PMID 30236821, PMID 3146521; conditions: rat model; ref [19],[20],[21]; cited from earlier work
[2] = system: cervical cancer cells; parameters: method as in PMID 26942921; conditions: ref [25], cited from earlier work
[3] = system: ROS (O2−·) levels in SiHa cells; assay: Quantification of superoxide anion by electronic paramagnetic resonance; assay type: cell-based, human; conditions: 48 h
Protocol: The SiHa cells (500 × 10^3) were seeded in a […] dish and kept at 37 °C in a humidified atmosphere with 5% CO2 until they reached 70% confluence. After, the cells were treated with two different concentrations of VPA and HO-AAVPA (1.4 and 0.2 mM) and maintained for 48 h, the experiment was performed in triplicate and used as a control for data comparison with the SiHa cells treated only with medium. Next, the cells were trypsinized and centrifuged at 3000 rpm for 10 min, and the cell pellet was treated with the radical scavenger CM-H (1 hydroxy-3-methoxycarbonyl-2,2, 5,5-tetramethyl pyrrolidine) diluted in Krebs buffer (99 mM NaCl, 4.69 mM KCl, 2.5 mM CaCl2 × 2H2O, 1.2 mM MgSO4 × 7 H2O, 2.5 mM NaHCO3, 1.03 mM KH2PO4, 5.6 mM D-Glucose, and 20 mM Na-HEPES) with sodium diethyldithiocarbamate trihydrate (DETEC; 5 μM) and deferoxamine methane sulfonate salt (DF 25 μM) at a 89:3:8% v/v ratio of Krebs buffer: DETEC:DF. The stock solution of CMH (10 mM) was used to dilute each sample to 0.5 mM. The CM-H solution and the sample preparation were processed inside a nitrogen atmosphere chamber. The samples containing CM-H were incubated for 30 min at 37 °C with constant shaking. After the samples were centrifuged at 3000 rpm for 15 min, 50 µL of the supernatant was taken up with capillaries (Corning, Glendale, CA, USA) inside the nitrogen chamber, and each of the capillaries were sealed on both sides to determine the EPR measurements.
The measurements of O2^−· formation were performed in a Bruker e-scan spectrometer with the following parameters recorded: magnetic field 3490 G, window: 60 G, amplitude: 1.5 G, gain: 56.4, power: 0.0155 mW; and frequency: 9.743 GHz. WinEPR Acquisition software was used to analyze the results. The intensity of each sample was measured and normalized to the cell number for each sample. Finally, the result was expressed as the intensity for 10,000 cells.

[4] = system: HMGB1 in SiHa cells; assay: Localization of HMGB1 by confocal microscopy; assay type: cell-based, human; conditions: 12 h; for HMGB1 fluorescence intensity: vs DMSO vehicle
Protocol: A total of 20 × 10^3 cells per well were added to 24-well plates and incubated for 24 h in DMEM with FBS. Then, the cells were washed with phosphate buffered saline (PBS 1X). The groups received the following treatments: VPA at 1.4 and 0.35 mM, HO-AAVPA at 0.2 and 0.005 mM, vehicle (DMSO 0.1%), and incubated for 12 h. After incubation, the cells were fixed with paraformaldehyde (PFA 4%) at 37 °C for 20 min and permeabilized (PBS Tween-Triton 0.5%) for 5 min. Subsequently, the cells were washed and the primary antibody, anti-HMGB1 (GTX101277, GeneTex, Alton Pkwy Irvine, CA, USA), was added at a ratio of 1:1000 and incubated overnight. The secondary antibody, donkey anti-rabbit IgG H&L (Alexa Fluor 647, Thermo Fisher Scientific, México City, Mexico), was added at a ratio of 1:1000 and incubated at 4 °C for 4 h. Finally, the slides were washed with PBS and mounted with Vectashield (Mounting Laboratories, Inc. Burlingame, CA, USA).
The images were collected and analyzed with an Axioskop 2 mot plus confocal fluorescence microscope (Carl Zeiss, Mexico City, Mexico) at EC Plan-Neofluar 20×–40×/0.5 Ph2: LP 650, LP 505.

[5] = system: SiHa cells; assay: Cell viability by MTT assay; assay type: cell-based, human; conditions: 48 h
Protocol: (§1) SiHa cells were kindly donated by Dr. Nicolás Villegas Sepulveda from the Department of Molecular Biomedicine, […], México. SiHa cells were cultured in Dulbecco’s modified Eagle’s medium (DMEM Gibco, Life Technologies, Invitrogen, Sigma-Aldrich Co., Toluca City Mexico), supplemented with 10% fetal bovine serum (FBS, Biowest, Kansas City, MO, USA) and antibiotic and antimycotic agents (Gibco, Fisher Scientific UK Ltd, Loughborough, UK). The cultures were kept at 37 °C in a humidified atmosphere with 5% CO2.
(§2) After seeding 10 × 10^3 cells per well in transparent 96-well plates, the cells were incubated for 24 h in DMEM medium with FBS. Then, the cells were incubated with different concentrations of HO-AAVPA (0.5, 1.0, 1.5, 2.0, and 2.5 mM) and VPA (0.625, 1.25, 2.5, 5.0, and 7.5 mM). After 48 h of incubation, the supernatant was removed. Then, 20 μL of MTT solution (0.5 mg/mL) in buffer was added, and the cells were incubated at 37 °C for 4 h. After the MTT solution was removed from all the wells, the formazan salts were solubilized with 100 μL of DMSO, and the absorbance of each well was read at 550 nm on a spectrophotometer (Multiskan EX Microplate Photometer, Thermo Scientific, Mexico).

[6] = Cell viability by MTT assay; assay type: cell-based, human; conditions: human, SiHa cells, at 2.5 mM
Protocol: as §1, §2

[7] = molecular target: T1, HDAC1 (Homo sapiens, UniProt Q13547); assay: Fluor de LYS HDAC1 inhibitory activity assay; assay type: biochemical; conditions: 250 ng/well, 37 °C, 5 µM substrate; mean ± SE
T1 construct: purchased Enzo Life Sciences BML-AK511
T1 sequence (Q13547 whole entry): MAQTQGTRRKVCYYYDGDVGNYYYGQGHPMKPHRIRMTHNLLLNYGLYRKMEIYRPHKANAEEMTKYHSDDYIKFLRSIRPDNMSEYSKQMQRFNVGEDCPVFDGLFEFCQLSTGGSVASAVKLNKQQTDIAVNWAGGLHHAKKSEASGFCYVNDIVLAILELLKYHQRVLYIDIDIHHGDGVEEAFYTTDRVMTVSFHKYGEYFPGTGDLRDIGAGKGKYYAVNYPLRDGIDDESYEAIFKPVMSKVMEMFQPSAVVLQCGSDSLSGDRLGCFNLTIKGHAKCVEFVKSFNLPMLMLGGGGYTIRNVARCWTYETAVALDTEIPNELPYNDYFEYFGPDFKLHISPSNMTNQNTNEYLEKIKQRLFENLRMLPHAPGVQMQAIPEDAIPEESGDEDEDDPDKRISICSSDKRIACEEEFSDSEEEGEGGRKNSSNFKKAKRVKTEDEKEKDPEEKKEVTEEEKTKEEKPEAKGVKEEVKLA

[8] = molecular target: T2, HDAC6 (Homo sapiens, UniProt Q9UBN7); assay: Fluor de LYS HDAC6 inhibitory activity assay; assay type: biochemical
T2 construct: purchased Enzo Life Sciences BML-AK516
T2 sequence (Q9UBN7 1-1215): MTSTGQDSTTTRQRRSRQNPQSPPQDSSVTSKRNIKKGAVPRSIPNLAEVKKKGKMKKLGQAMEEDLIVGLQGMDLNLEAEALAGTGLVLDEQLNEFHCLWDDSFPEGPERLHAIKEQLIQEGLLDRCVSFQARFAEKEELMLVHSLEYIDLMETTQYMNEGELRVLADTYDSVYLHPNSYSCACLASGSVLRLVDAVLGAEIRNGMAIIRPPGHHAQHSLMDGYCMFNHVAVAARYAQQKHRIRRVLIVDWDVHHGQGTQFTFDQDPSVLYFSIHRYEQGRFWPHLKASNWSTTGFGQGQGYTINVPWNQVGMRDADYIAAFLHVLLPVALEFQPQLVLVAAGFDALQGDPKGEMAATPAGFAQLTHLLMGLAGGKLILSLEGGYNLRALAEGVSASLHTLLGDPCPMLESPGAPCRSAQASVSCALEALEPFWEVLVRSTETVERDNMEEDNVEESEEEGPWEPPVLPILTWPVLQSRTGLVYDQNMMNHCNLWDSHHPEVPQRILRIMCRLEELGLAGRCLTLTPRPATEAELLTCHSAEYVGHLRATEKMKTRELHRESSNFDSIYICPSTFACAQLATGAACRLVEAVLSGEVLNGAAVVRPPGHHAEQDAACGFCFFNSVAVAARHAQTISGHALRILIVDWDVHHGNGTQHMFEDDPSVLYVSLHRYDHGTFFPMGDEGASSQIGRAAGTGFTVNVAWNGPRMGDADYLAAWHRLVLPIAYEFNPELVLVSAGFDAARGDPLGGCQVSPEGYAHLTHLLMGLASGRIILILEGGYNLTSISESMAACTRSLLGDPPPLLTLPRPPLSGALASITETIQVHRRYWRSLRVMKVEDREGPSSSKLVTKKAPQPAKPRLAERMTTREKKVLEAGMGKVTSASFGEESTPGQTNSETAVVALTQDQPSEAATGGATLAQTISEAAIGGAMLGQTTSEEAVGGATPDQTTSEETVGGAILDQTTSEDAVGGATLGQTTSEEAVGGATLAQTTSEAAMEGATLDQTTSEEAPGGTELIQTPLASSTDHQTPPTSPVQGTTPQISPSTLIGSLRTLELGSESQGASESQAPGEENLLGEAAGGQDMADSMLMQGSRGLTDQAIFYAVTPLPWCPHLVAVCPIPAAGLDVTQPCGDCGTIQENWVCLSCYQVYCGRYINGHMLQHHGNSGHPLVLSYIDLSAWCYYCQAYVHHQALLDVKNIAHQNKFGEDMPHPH

[9] = molecular target: T3, HDAC8 (Homo sapiens, UniProt Q9BY41); assay: Fluor de LYS HDAC8 inhibitory activity assay; assay type: biochemical
T3 construct: purchased Enzo Life Sciences BML-AK518
T3 sequence (Q9BY41 1-377): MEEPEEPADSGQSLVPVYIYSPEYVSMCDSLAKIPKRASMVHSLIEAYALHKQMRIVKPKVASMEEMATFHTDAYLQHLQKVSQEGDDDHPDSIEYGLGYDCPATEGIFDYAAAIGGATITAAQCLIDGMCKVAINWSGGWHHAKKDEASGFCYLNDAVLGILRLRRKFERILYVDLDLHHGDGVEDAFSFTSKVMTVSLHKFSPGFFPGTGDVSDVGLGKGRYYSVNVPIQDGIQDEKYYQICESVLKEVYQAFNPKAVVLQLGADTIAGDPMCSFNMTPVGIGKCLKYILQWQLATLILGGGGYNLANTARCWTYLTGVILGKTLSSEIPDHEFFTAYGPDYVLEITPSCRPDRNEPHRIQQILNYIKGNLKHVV

Structure (SMILES)	half-life [1]	concentration that did not produce significant effect on the proliferation ([2]; cervical cancer cells)	concentration with cytotoxic effects ([2]; other studies)	ROS (O2−·) production ([3]; 0.2 mM)	ROS (O2−·) production ([3]; 1.4 mM)	HMGB1 localization ([4]; HO-AAVPA 0.2 mM, VPA 1.4 mM)	HMGB1 fluorescence intensity ([4]; HO-AAVPA 0.2 mM, VPA 1.4 mM)	concentration causing cell death ([5]; concentration-dependent)	IC50 ([5]; Homo sapiens, SiHa, MTT)	viability at 48 h, 2.5 mM [6]	IC50 [7]	HMGB1 localization ([4]; low concentrations: HO-AAVPA 0.005 mM, VPA 0.35 mM)	IC50 ([8]; 400 ng/well, 37 °C, 12 µM substrate, mean ± SE)	inhibitory activity on HDAC6 ([8]; tested at 1-1000 µM)	IC50 ([9]; 1 U/well, 30 °C, 50 µM substrate, mean ± SE)	inhibitory activity on HDAC8 ([9]; tested at 1-1000 µM)
CCCC(CCC)C(=O)O [VPA, valproic acid, reference compound]	1 h	1 mM	~3000 µM	did not have a significant difference in ROS production	did not have a significant difference in ROS production	HMGB1 is expressed in a larger amount in the nucleus; also recorded: observed predominantly in the nucleus	increase in the fluorescence was more; also recorded: significant increase of HMGB1	–	–	–	–	–	–	–	–	–
CCCC(CCC)C(=O)Nc1ccccc1O [HO-AAVPA, N-(2′-hydroxyphenyl)-2-propylpentanamide]	4 h	–	–	slightly lower, but still higher than the control	ROS production was greater; also recorded: increased	high amount of HMGB1 in the cytoplasm than in the nucleus; also recorded: greater intensity of translocation of HMGB1 from the nucleus to the cytoplasm	increase in the fluorescence was more; also recorded: significant increase of HMGB1; also recorded: statistically higher	≥ 1 mM	1600 µM	~25%	153 µM and 154 µM	more HMGB1 in the cytoplasm than VPA	> 1000 µM	no inhibitory activity; also recorded: no inhibition was observed	> 1000 µM	no inhibitory activity; also recorded: no inhibition was observed
